Experimental data: patent US7087622B2, “Pyridone compounds as inhibitors of bacterial type III protein secreation systems” (priority 2004, dated 2006)

What was measured:
[1] = tested on: SPI1 type III protein secretion system (SopE-Bla secretion); assay: Primary assay: Type III protein secretion of the chimeric SopE-Bla polypeptide by Salmonella enterica (nitrocefin hydrolysis); type: cell-based; conditions: read-out: SopE IC50(uM)
Description: Primary assay: Type III protein secretion of the chimeric SopÉ-Bla polypeptide by Salmonella enterica. This procedure is a cell-based assay that measures the type III-dependent secretion by Salmonella enterica of a plasmid-encoded chimeric polypeptide whose synthesis can be regulated, and which is endowed with an enzymatic activity that can be monitored calorimetrically by hydrolysis of a substrate that is unable to penetrate into the bacterial cytoplasm within the time constraints of the reaction. Thus, the colorimetric reaction is not influenced by SopÉ-Bla polypeptide in the bacterial cytoplasm. Instead, it effectively measures the amount of polypeptide that has been secreted from the S. enterica cytoplasm to the extracellular medium via type III system protein secretion.
The SopÉ-Bla recombinant polypeptide consists of two functionally distinct domains spliced together. The N-terminus domain is encoded by a polynucleotide region specifying the signal for type III secretion of the SopE polypeptide of S. enterica, an effector of the SPI1 type III protein secretion system. The C-terminus domain of SopÉ-Bla consists of a 263 amino acid peptide sequence that corresponds to the TEM-1 β-lactamase expressed by plasmid pBR322 but without its N-terminal signal sequence. The TEM-1 β-lactamase part of the SopÉ-Bla chimeric polypeptide is used as a reporter enzyme. It is capable of hydrolyzing nitrocefin resulting in a product whose accumulation can be monitored by colorimetric detection. The secretion of the SopÉ-Bla chimeric polypeptide from the cytoplasm to the extracellular medium is dependent on type III protein secretion.
For this procedure, cells grown under conditions known to favor a functional SPI1 secretion system are induced for expression of the SopÉ-Bla protein and grown either in the presence or in the absence of putative inhibitors for determined time. Nitrocefin is then added to the various cultures and its hydrolysis are used for quantitation. An inhibitor of Type III protein secretion is generally a compound that reduces the signal of the enzymatic reaction by decreasing the amount of SopÉ-Bla secreted into the extracellular medium.

[2] = tested on: SPI1 type III protein secretion system (SipB secretion); assay: Secondary assay: Type III-dependent protein secretion of the SipB polypeptide by S. enterica (immunoblot); type: cell-based; conditions: Salmonella enterica, read-out: SipB IC50(uM)
Procedure: Secondary assay: Type III-dependent protein secretion of the SipB polypeptide by S. enterica. The SipB protein of S. enterica is another effector of the SPI1 type III protein secretion system from S. enterica. In this cell-based procedure, the Type III-dependent secretion of SipB from the bacterial cytoplasm to the extracellular medium was measured through its reactivity with a cognate mouse monoclonal.
Salmonella enterica cells growing either in the presence or in the absence of inhibitors are induced for the production of SipB. Following an established period of growth the cells are sedimented and the amount of SipB present in the supernatant is quantified with a scanning imager following application of immunoblot techniques. Detection may employ an anti-SipB mouse monoclonal antibody (e.g., obtained from Jorge Galan, SUNY at Stony Brook, N.Y.) followed by treatment with commercially available sheep anti-mouse polyclonal antibody conjugated with horseradish peroxidase. Thereafter the membrane is treated with a peroxidase chemiluminescent substrate and exposed to film for an appropriate exposure time. Inhibition may be measured relative to untreated controls.

Row | Structure (SMILES) | IC50 [1] [µM] | IC50 [2] [µM]
1 | O=C(Nc1cc(-c2ccc(Cl)cc2)cn(C(Cc2ccc(Cl)cc2)C(=O)O)c1=O)c1ccc(Oc2ccccc2)cc1 (stereo not shown) [Compound 52, 3-(4-Chlorophenyl)-2-[5-(4-chlorophenyl)-2-oxo-3-(4-phenoxybenzoylamino)-2H-pyridin 1-yl]propionic acid] | 9 | > 100
2 | O=C(Nc1cc(-c2ccc(C(F)(F)F)cc2)cn(C(Cc2ccc(Cl)cc2)C(=O)O)c1=O)c1ccc(Oc2ccccc2)cc1 (stereo not shown) [Compound 54, 3-(4-Chlorophenyl)-2-[2-oxo-3-(4-phenoxybenzoylamino)-5-(4-trifluoromethyl-phenyl)-2H-pyridin-1-yl]propionic acid] | 16.6 | > 100
3 | O=C(Nc1cc(-c2ccc3ccccc3c2)cn([C@@H](Cc2ccccc2)C(=O)O)c1=O)c1ccc(C(F)(F)F)cc1 [Compound 3, (S)-2-[5-Naphthalen-2-yl-2-oxo-3-(4-trifluoromethylbenzoylamino)-2H-pyridin-1-yl]-3-phenylpropionic acid] | 28.5 | > 100
4 | O=C(Nc1cc(-c2cccc3ccccc23)cn(C(Cc2ccc(Cl)cc2)C(=O)O)c1=O)c1ccc(-c2ccccc2)cc1 (stereo not shown) [Compound 46, 2-{3-[(Biphenyl-4-carbonyl)amino]-5-naphthalen-1-yl-2-oxo-2H-pyridin-1-yl}-3-(4-chlorophenyl)propionic acid] | 1.1 | > 100
5 | O=C(Nc1cc(-c2cccc3ccccc23)cn(C(Cc2ccc(Cl)cc2)C(=O)O)c1=O)c1ccc(C(F)(F)F)cc1 (stereo not shown) [Compound 19, 3-(4-Chlorophenyl)-2-[5-naphthalen-1-yl-2-oxo-3-(4-trifluoromethyl-benzoylamino)-2H -1-yl]propionic acid] | 5.5 | > 100
6 | O=C(Nc1cc(-c2ccccc2)cn(C(Cc2ccc(Cl)cc2)C(=O)O)c1=O)c1ccc(-c2ccccc2)cc1 (stereo not shown) [Compound 32, 2-{3-[(Biphenyl-4-carbonyl)amino]-2-oxo-5-phenyl-2H-pyridin-1-yl}-3-(4-chloro-phenyl)propionic acid] | 2.3 | > 100
7 | O=C(Nc1cc(-c2cccc3ccccc23)cn(C(CSCc2ccccc2)C(=O)O)c1=O)c1ccc(C(F)(F)F)cc1 (stereo in doubt) [Compound 16, (R)-3-Benzylsulfanyl-2-[5-naphthalen-1-yl-2-oxo-3-(4-trifluoromethyl-benzoylamino)-2H-pyridin-1-yl]propionic acid] | 6.4 | > 100
8 | O=C(Nc1cc(-c2ccc(Br)cc2)cn(C(Cc2ccc(Cl)cc2)C(=O)O)c1=O)c1ccc(-c2ccccc2)cc1 (stereo not shown) [Compound 37, 2-[3-[(Biphenyl-4-carbonyl)amino]-5-(4-bromophenyl)-2-oxo-2H-pyridin-1-yl]-3-(4-chlorophenyl)propionic acid] | 1.5 | > 100
9 | O=C(Nc1cc(-c2cc(F)cc(F)c2)cn(C(Cc2ccc(Cl)cc2)C(=O)O)c1=O)c1ccc(-c2ccccc2)cc1 (stereo not shown) [Compound 36, [3-[(Biphenyl-4-carbonyl)amino]-5-(3,5-difluorophenyl)-2-oxo-2H-pyridin-1-yl]-3-(4-chlorophenyl)propionic acid] | 2.4 | > 100
10 | O=C(Nc1cc(-c2ccc(-c3ccccc3)cc2)cn([C@@H](Cc2ccccc2)C(=O)O)c1=O)c1ccc(C(F)(F)F)cc1 [Compound 2, (S)-2-[5-Biphenyl-4-yl-2-oxo-3-(4-trifluoromethylbenzoylamino)-2H-pyridin-1-yl]-3-phenylpropionic acid] | 9.3 | > 100
11 | O=C(Nc1cc(-c2ccc3ccccc3c2)cn([C@@H](COCc2ccccc2)C(=O)O)c1=O)c1ccc(C(F)(F)F)cc1 [Compound 13, (S)-3-Benzyloxy-2-[5-naphthalen-2-yl-2-oxo-3-(4-trifluoromethylbenzoylamino)-2H-pyridin-1-yl]propionic acid] | 48 | > 100
12 | O=C(Nc1cc(C#Cc2ccccc2)cn(C(Cc2ccc(Cl)cc2)C(=O)O)c1=O)c1ccc(C(F)(F)F)cc1 (stereo not shown) [Compound 31, 3-(4-Chlorophenyl)-2-[2-oxo-5-phenylethynyl-3-(4-trifluoromethylbenzoylamino)-2H-pyridin-1-yl]propionic acid] | 34.2 | > 100
13 | CC(=O)c1ccc(-c2cc(NC(=O)c3ccc(C(F)(F)F)cc3)c(=O)n(C(Cc3ccc(Cl)cc3)C(=O)O)c2)s1 (stereo not shown) [Compound 27, 2-[5-(5-Acetylthiophen-2-yl)-2-oxo-3-(4-trifluoromethylbenzoylamino)-2H-pyridin-1-yl]-3-(4-chlorophenyl)propionic acid] | 34.2 | > 100
14 | O=C(Nc1cc(-c2ccc(O)cc2)cn(C(Cc2ccc(Cl)cc2)C(=O)O)c1=O)c1ccc(C(F)(F)F)cc1 (stereo not shown) [Compound 29, 3-(4-Chlorophenyl)-2-[5-(4-hydroxyphenyl)-2-oxo-3-(4-trifluoromethyl-benzoylamino)-2H-pyridin-1-yl]propionic acid] | 31.8 | > 100
15 | O=C(Nc1cc(-c2cccc(C(F)(F)F)c2)cn(C(Cc2ccc(Cl)cc2)C(=O)O)c1=O)c1ccc(Oc2ccccc2)cc1 (stereo not shown) [Compound 23, 3-(4-Chlorophenyl)-2-[2-oxo-3-(4-phenoxybenzoylamino)-5-(3-trifluoromethyl-phenyl)-2H-pyridin-1-yl]propionic acid] | 9.8 | > 100
16 | O=C(Nc1cc(-c2cc3ccccc3o2)cn(C(Cc2ccc(Cl)cc2)C(=O)O)c1=O)c1ccc(C(F)(F)F)cc1 (stereo not shown) [Compound 25, 2-[5-Benzofuran-2-yl-2-oxo-3-(4-trifluoromethylbenzoylamino)-2H-pyridin-1-yl]-3-(4-chlorophenyl)propionic acid] | 3.7 | > 100
17 | O=C(Nc1cc(-c2ccc(-c3ccccc3)cc2)cn(C(Cc2ccc(Cl)cc2)C(=O)O)c1=O)c1ccc(C(F)(F)F)cc1 (stereo not shown) [Compound 17, 2-[5-Biphenyl-4-yl-2-oxo-3-(4-trifluoromethylbenzoylamino)-2H-pyridin-1-yl]-3-(4-chlorophenyl)propionic acid] | 2 | > 100
18 | CC(=O)Nc1cccc(-c2cc(NC(=O)c3ccc(C(F)(F)F)cc3)c(=O)n(C(Cc3ccc(Cl)cc3)C(=O)O)c2)c1 (stereo not shown) [Compound 28, 2-[5-(3-Acetylaminophenyl)-2-oxo-3-(4-trifluoromethylbenzoylamino)-2H-pyridin-1-yl]-3-(4-chlorophenyl)propionic acid] | 52.4 | > 100
19 | CC(C)Oc1ccc(-c2cc(NC(=O)c3ccc(C(F)(F)F)cc3)c(=O)n([C@@H](COCc3ccccc3)C(=O)O)c2)cc1 [Compound 12, (S)-3-Benzyloxy-2-[5-(4-isopropoxyphenyl)-2-oxo-3-(4-trifluoromethyl-benzoylamino)-2H-pyridin-1-yl]propionic acid] | 67.2 | > 100
20 | CN(C)c1ccc(-c2cc(NC(=O)c3ccc(C(F)(F)F)cc3)c(=O)n([C@@H](COCc3ccccc3)C(=O)O)c2)cc1 [Compound 11, (S)-3-Benzyloxy-2-[5-(4-dimethylaminophenyl)-2-oxo-3-(4-trifluoromethyl-benzoylamino)-2H-pyridin-1-yl]propionic acid] | 76 | > 100
